Key:
[1] = system: P. aeruginosa PA14 persisters; assay: Persister killing assay, isolated persister fraction of P. aeruginosa PA14; format: cell-based
Description: (§1) Persister killing—Planktonic persister cells were isolated from a stationary phase culture as described e.g. in Chen et al., 2011(Chen X, Zhang M, Zhou C, Kallenbach N R, Ren D. 2011. Control of bacterial persister cells by Trp/Arg-containing antimicrobial peptides. Appl Environ Microbiol 77:4878-4885.). Briefly, an overnight culture of P. aeruginosa PA14 and PA1255 (a cystic fibrosis isolate) was inoculated each in 50 ml 1:20 Trypticase Soy Broth (TSB). After 48 h of growth at 37° C., the culture was treated with ofloxacin at a final concentration of 10 μg/ml (5× MIC) for 5 hours at 37° C., while shaking at 200 rpm. The persister cells surviving this antibiotic treatment were isolated by centrifugation (5250 g, 15 min, 4° C.) and the cell pellet was washed twice with 20 mM HEPES buffer. Prior to treatment, cells were resuspended in the same volume of 20 mM HEPES buffer. A persister killing assay was performed as described e.g. by De Groote et al., 2009 (De Groote V N, Verstraeten N, Fauvart M, Kint C I, Verbeeck A M, Beullens S, Cornelis P, Michiels J. 2009. Novel persistence genes in Pseudomonas aeruginosa identified by high-throughput screening. FEMS Microbiol Lett 297:73-79). Briefly, a volume of 100 μl of the isolated persister fraction was mixed with polypeptides comprising peptidoglycan hydrolase or ciprofloxacin (final concentrations of 10× or 30× MIC against the respective strains), in the absence or presence of 0.5 mM EDTA-Na2 (final concentration) up to a final volume of 200 μl. Control treatments with 20 mM HEPES buffer, 0.5 mM EDTA or ofloxacin (30×and 10× MIC) were performed in parallel. The mixtures were shaken (200 rpm) for lh at 37° C. Treated persisters where washed twice with 20 mM HEPES buffer and appropriate dilutions were plated on TSB agar plates and incubated at 37° C. The number of persisters was determined after 72 h incubation to allow complete resuscitation of all surviving persisters. Each experiment was independently repeated at least 3 times.
(§2) Planktonic persister cells were isolated from a stationary-phase culture as described previously (Liebens V, Defraine V, Van der Leyden A, De Groote V N, Fierro C, Beullens S, Verstraeten N, Kint C, Jans A, Frangipani E, Visa P, Marchal K, Versées W, Fauvart M, Michiels J. 2014. A putative de-N-acetylase of the PIG-L superfamily affects fluoroquinolone tolerance in Pseudomonas aeruginosa. Pathogen. Dis. 71:39-54.) with minor modifications. An overnight culture of P. aeruginosa PA14, PAl255 (a cystic fibrosis isolate), Escherichia coil UTI-89 (isolate from chronic urinary tract infection) and Acinetobacter baumannii RUH134 (reference strain for global clone 2) was diluted 100×in 50 ml 1:20 Trypticase soy broth (TSB). After overnight growth at 37° C., the cultures were treated with either 10 μg/ml ofloxacin (P. aeruginosa strains), 200 μg/ml tobramycin (A. baumannii) or 200 μg/ml amikacin (E. coli) for 5 h at 37° C., while shaking at 200 rpm. The antibiotic concentrations were chosen to allow only persister cells to survive, based on previous time-kill curves. The persister fractions were isolated by centrifugation (5,250× g for 15 min at 4° C.), and the cell pellet was washed twice with 20 mM HEPES (pH 7.4). Prior to treatment, the cells were resuspended in a ten-fold reduced volume of 20 mM HEPES (pH 7.4) to concentrate the persisters.
A persister killing assay was performed as described previously (Liebens et al., 2014), with minor modifications. […]

[2] = system: P. aeruginosa PAl255 persisters; assay: Persister killing assay, isolated persister fraction of P. aeruginosa PAl255 (cystic fibrosis isolate); format: cell-based
Description: as §1, with “Briefly, a volume of 100 μl of the isolated persister fraction was mixed with polypeptides comprising peptidoglycan hydrolase or ciprofloxacin (final concentrations of 10× or 30× MIC against the respective strains), in the absence or presence of 0.5 mM EDTA-Na2 (final concentration) up to a final volume of 200 μl. Control treatments with 20 mM HEPES buffer, 0.5 mM EDTA or ofloxacin (30×and 10× MIC) were performed in parallel. The mixtures were shaken (200 rpm) for lh at 37° C. Treated persisters where washed twice with 20 mM HEPES buffer and appropriate dilutions were plated on TSB agar plates and incubated at 37° C.” left out, “Each experiment was independently repeated at least 3 times.” left out

[3] = system: E. coli UTI-89 persisters; assay: Persister killing assay, isolated persister fraction of E. coli UTI-89 (chronic urinary tract infection isolate); format: cell-based, Escherichia coli; conditions: 10× MIC
From the text: as §2
A persister killing assay was performed as described previously (Liebens et al., 2014), with minor modifications. A volume of 100 μl of the isolated persister fraction was mixed with either the polypeptide according to SEQ ID NO: 124, 125, 126 or ciprofloxacin (final concentrations of 10× or 30× MIC against the respective strains), in the absence or presence of 0.5 mM EDTA-Na2 (final concentration) up to a final volume of 200 μl. Control treatments with 20 mM HEPES (pH 7.4), 0.5 mM EDTA, or ofloxacin/tobramycin/amikacin (30× and 10× MIC) were performed in parallel. […] The number of persisters was determined after 72 h of incubation to allow for complete resuscitation of all surviving persisters.

[4] = 10× and 30× MIC, with and without 0.5 mM EDTA

Molecule: O=C(O)c1cn(C2CC2)c2cc(N3CCNCC3)c(F)cc2c1=O [ciprofloxacin, reference compound]
- bactericidal activity against isolated persisters [1, 4]: did not affect the persisters
- bactericidal activity against isolated persisters [2, 4]: did not affect the persisters
- killing of persisters ([3]; with and without 0.5 mM EDTA): did not completely kill persisters

Molecule: O=C([O-])CN(CCN(CC(=O)[O-])CC(=O)O)CC(=O)O.[Na+].[Na+] [EDTA, reference compound]
- bactericidal activity against isolated persisters ([1]; 0.5 mM EDTA alone): did not affect the persisters
- bactericidal activity against isolated persisters ([2]; 0.5 mM EDTA alone): did not affect the persisters

B1: SEQ ID NO: 124: polypeptide comprising a fusion of Sarcotoxin IA (SEQ ID NO: 48) and KZ144 (SEQ ID NO: 11), active against vegetative cells of E. coli (protein)
chain: MKFFRKLKKSVKKRAKEFFKKPRVIGVSIPFGSKVLRKGDRGDEVCQLQTLLNLCGYDVGKPDGIFGNNTFNQVVKFQKDNCLDSDGIVGKNTWAELFSKYSPPIPYKTIPMPTANKSRAAATPVMNAVENATGVRSQLLLTFASIESAFDYEIKAKTSSATGWFQFLTGTWKTMIENYGMKYGVLTDPTGALRKDPRISALMGAELIKENMNILRPVLKREPTDTDLYLAHFFGPGAARRFLTTGQNELAATHFPKEAQANPSIFYNKDGSPKTIQEVYNLMDGKVAAHRKLEHHHHHH
modifications: SarcotoxinIA-KZ144his
- effect on persisters ([1]; 30× MIC, with 0.5 mM EDTA): complete eradication
- reduction of the number of persisters ([1]; 30× MIC, with 0.5 mM EDTA): approximately 5 log units
- reduction of the number of persisters in comparison to the 0.5 mM EDTA control ([1]; 30× MIC, without EDTA): approximately 2.3 log units
- killing of persisters ([3]; with 0.5 mM EDTA): completely eradicated
- killing of persisters ([3]; without 0.5 mM EDTA): did not completely kill persisters

Reference: patent US20170106058A1, “PHARMACEUTICAL COMPOSITION AGAINST CHRONIC BACTERIAL INFECTIONS” (Lysando AG, priority 2014, published 2017)
